Tests used:
[1] = system: protozoa; experiment: Pilot field testing: elimination of protozoal population in sheep; type: in vivo; conditions: for Elimination of protozoa: one week after single dose of 167 mg/kg
Experimental: (§1) In this trial the effect of defaunation agents after 1 and 2 weeks was examined in sheep in pilot field studies.
(§2) Thirty mature fine wooled merino weather sheep consuming a forage diet were given a single dose of either compound 27 or 37. The dose rate was 167 mg/kg and each compound was dispersed in 20 mL of ethanol and 200 mL of centrifuged rumen liquor. The compounds were then administered into the rumen using a flexible stomach tube.

[2] = system: rumen bacteria; experiment: Bacterial viability in sheep after administering defaunation compounds; type: in vivo; conditions: gas production one week after dosing vs pre-dosing
Experimental: In order to establish what effect the compounds had on the viability of rumen bacteria, a sample of rumen liquor was collected prior to dosing of the compound. The sample was withdrawn under vacuum using a pre-warmed tube inserted into the rumen through a rumen cannula. The sample was collected in a pre-warmed (39° C.) flask, gassed with carbon dioxide and covered. Two-pre-warmed 30 ml centrifuge tubes were then filled with well mixed rumen liquor and centrifuged at 2000 rpm for 5 minutes. Half the volume of each tube was then poured into another pre-warmed tube without disturbing the sediment. Three lots of 10 ml of this rumen liquor were then pipetted into 15 ml tubes which contained 10 μL of urea solution (40% w/v and 300 μL of glucose solution (50% w/v). The urea and glucose acted as substrate for the bacteria. The tubes were then gassed with carbon dioxide, stoppered and placed in a water bath at 39° C. After 10 minutes a 5 ml glass syringe was secured into the stoppers (through which a hypodermic needle had been inserted) and the gas collected for five hours and recorded.
This bacterial viability measure was then repeated one week after dosing with each of the compounds referred to in Table 1. Defaunation compositions were prepared according to the method of Example 1. The amount of gas produced was then compared with the pre-dosing level. The criterion for classifying post-dosing bacterial viability is shown below:
Poor--reduction in post-dosing gas production relative to pre-dosing levels.
OK--post-dosing gas production the same as pre-dosing levels.
Good--increase in post-dosing gas production relative to pre-dosing levels.

[3] = system: protozoa; experiment: Wool growth trial: protozoal number; type: in vivo; conditions: sheep, defaunated period, 167 mg/kg
Experimental: Seven sheep each were defaunated using a dose rate of 167 mg/kg. Compounds were administered by first mixing with 20 ml of ethanol and then with 200 ml of centrifuged rumen liquor. This solution was then administered via a flexible stomach tube directly into the rumen. The sheep were fed with a ration of 90% oaten chaff and 10% Lucerne chaff at a rate of 1000 g per day. The sheep were maintained in a defaunated state by their isolation from faunated sheep to prevent the possibility of refaunation. The sheep were allowed to adjust for 3 weeks after administering the compound before any wool growth measurements were taken.
At the start of the wool growth measurement period, a 10 cm square area of wool was removed from both sides of the sheep. After four weeks the same area was reclipped and the wool retained for scouring at the end of the trial.
The sheep then had protozoa introduced back into their rumen and were allowed to adjust for three weeks. Similarly, during the second four week period, the wool was clipped from the same patch area. The wool harvested during the two four week trial periods was then scoured of wool wax and extraneous material and weighed.

[4] = system: rumen ciliate protozoa; experiment: In vitro activity of defaunation compounds against rumen ciliate protozoa; type: cell-based; conditions: 39° C., anaerobic, 3 hours, tested at 50, 150, 250 and 500 ppm
Experimental: Compounds of Table 1 were tested for their toxicity against rumen ciliate protozoa by firstly isolating protozoa from rumen liquor collected from faunated animals. The rumen liquor was then centrifuged at 500 g for five minutes and the supernatant discarded. The protozoal-rich sediment was then reconstituted in McDougal's artificial saliva. Residual bacteria were suppressed by using a combination of two antibiotics at low concentration. Nitrogen and energy substrate was optimized for the protozoal preparation. At all times the protozoal preparation was maintained at 39° C. and kept anaerobic.
Sixty milligrams of each the compounds of Table 1 were dissolved in 1.2 ml of dimethyl sulphoxide and dispersed in triplicate to achieve a final concentration of 50, 150, 250 and 500 ppm. Ten milliliters of protozoal preparation was then added to each tube. After every second compound, control tubes were included which contained everything except for compound. The tubes, to which a 5 ml glass syringe was attached, were then incubated for 3 hours in a water bath at 39° C. The production of gas causes the syringe plunger to be displaced.
At the end of the incubation period, the volume of gas produced was recorded and the viability of the protozoa assessed visually using a microscope. The toxicity of the compounds to protozoa was assessed from both the reduction in gas produced relative to the control and by direct observation of the protozoa for movement of cilia.

[5] = Pilot field testing: adverse effects and grazing behavior; type: in vivo; conditions: sheep, 167 mg/kg
Experimental: as §1, §2

[6] = Effect of defaunation compounds on feed intake of sheep; type: in vivo; conditions: after dosing vs pre-dosing intake
Experimental: Sheep were allowed a minimum of three weeks to adapt to their ration of 900 g of oaten chaff and 100 g of Lucerne chaff. The pre-dosing level of intake for each animal was established from the mean of five days intake immediately prior to dosing. Any effects of administering the compound on feed intake was then determined by measuring the level of feed intake after dosing.
The criteria of classifying the effect on food intake are shown below.
Poor--greater than 50% reduction in feed intake during the first week after dosing.
Fair--greater than 50% reduction in feed intake on the day following dosing but less then 50% reduction one week after dosing.
OK--transient drop in feed intake which is less than 50% on the day after dosing.
Good--No reduction in feed intake following dosing.

[7] = system: rumen bacteria; experiment: Sheep test: bacterial gas production; type: in vivo
Experimental: In this trial the effect of defaunation by compounds 27, 30 and 37 (see Table 1) after 1 and 3 weeks were examined using penned sheep.
The compounds were each administered to two sheep as a single dose at 167 mg/kg body weight. Compositions containing each compound were prepared according to the method of Example 1. Sheep were penned and fed 1000 g/day of a chaffed oaten hay and Lucerne mixture (90/10). Protozoal and bacterial viabilities were monitored along with the feed intake of the sheep according to the methods taught in Examples 2, 3 and 7.

[8] = system: rumen bacteria; experiment: In vitro bacterial gas inhibition; type: cell-based; conditions: at the concentration known to kill protozoa
Experimental: Compounds of Table 1 were also tested for toxicity bacteria. This involved removing protozoa from rumen liquor by centrifugation at 2,000 g for 5 minutes and collecting the bacterial rich supernatant. Nitrogen and energy substrate was added to the bacterial preparation which was then dispensed in triplicate 10 ml volumes over the same range of compound concentrations (50, 150, 250 and 500 ppm.) referred to in Example 2. Control tubes were placed after every second compound to enable the inhibition of gas resulting from the compound to be assessed. […] It can be seen that these compounds are selective in their mode of action, in that they are more toxic to protozoa than bacteria.

| SMILES | Elimination of protozoa [1] | Protozoal number ([1]; week 0, 167 mg/kg) | Protozoal number ([1]; week 1, 167 mg/kg) | Protozoal number ([1]; week 2, 167 mg/kg) | Bacterial Viability [2] | Prot. Number [3] | Conc Required to Kill all Protozoa [4] | Adverse effects and grazing behavior [5] | Feed Intake [6] | Bacterial gas production ([7]; 1 week after 167 mg/kg) | Bacterial gas production ([7]; 3 weeks after 167 mg/kg) | Bacterial gas production ([7]; pre-dose (baseline)) | Bact. Gas Inhibition at the conc. required to kill protozoa [8] |
| --- | --- | --- | --- | --- | --- | --- | --- | --- | --- | --- | --- | --- | --- |
| Cc1ccc(Nc2nc(Cl)nc(Cl)n2)cc1Cl [Compound 27, 2,4 dichloro-6-(3 chloro-4-methylanilino)-s-triazine] | total elimination of protozoa in all sheep | 285 per mL × 10^3 | 0 per mL × 10^3 | 0 per mL × 10^3 | Okay | 0 per mL × 10^3 | 150 ppm | no adverse effects and grazing behavior was normal | Okay (transient drop, less than 50% at day 2) | 3.5 M1 per 5 hr | 3.8 M1 per 5 hr | 2.9 M1 per 5 hr | 67 |
| Clc1nc(Cl)nc(Nc2ccccc2Cl)n1 [Compound 37, 2,4-dichloro-6-(2-chloroanilino)-1,3,5-triazine] | total elimination of protozoa in all sheep | 190 per mL × 10^3 | 0 per mL × 10^3 | 0 per mL × 10^3 | Okay | 0 per mL × 10^3 | 250 ppm | no adverse effects and grazing behavior was normal | Okay (transient drop, less than 50% at day 2) | 1.9 M1 per 5 hr | 3.4 M1 per 5 hr | 1.8 M1 per 5 hr | 57 |

Reference: patent publication US5561131A, “Defaunation method” (Mallinckrodt Veterinary, Inc., priority 1991, dated 1996)
